# In the oligonucleotide strings, read from the 5' end, every base follows the letter of its sugar. An asterisk marks phosphorothioate; unmarked linkages are phosphodiester. Other units and linkages are bracketed, terminal groups are in braces. A string of capitals states the bases alone. e = 2'-O-(2-methoxyethyl) (MOE); [5mC] = 5-methylcytosine; d = 2'-deoxy (DNA)
# Tests used:
# [1] = tested on: mir-143 miRNA binding site; experiment: GFP mir-143 sensor reporter in T-REx-HeLa cells; format: cell-based, human; settings: for Mean fluorescence: T-REx-HeLa cells, 24 hours post-transfection
# Text: Reporter systems have been developed herein to assess the ability of miRNA mimics to provoke a gene silencing response and to assess whether antisense oligomeric compounds targeting miRNAs can inhibit gene silencing activity. The T-REx™-HeLa cell line (Invitrogen Corp., Carlsbad, Calif.) was used for either stable or transient transfections with plasmids constitutively expressing miRNAs, pre-miRNAs, pri-miRNAs or mimics thereof, and, in some cases, antisense oligomeric compounds targeting the expressed miRNA were also transfected into the cells. It is understood that other mammalian cells lines can also be used in this reporter system. T-REx™-HeLa cells were routinely cultured in DMEM, high glucose (Invitrogen Corporation, Carlsbad, Calif.), supplemented with 10% fetal bovine serum (Invitrogen Corporation). […] Cells were harvested when they reached 90% confluence, and on the day before transfection with expression or reporter plasmids (described in detail below), the T-REx™-HeLa cells were seeded onto 24-well plates at 50,000 cells/well. The following day, cells were transfected according to standard published procedures with various combinations of plasmids using 2 μg Lipofectamine™ 2000 Reagent (Invitrogen) per μg of plasmid DNA. When transfecting oligomeric compounds, 1-3 μg of Lipofectamine™ 2000 Reagent was used per 100 nM oligomeric compound.
# Plasmids used are as follows: The pcDNA3.1©/NT-GFP (Invitrogen) plasmid, containing a CMV promoter controlling expression of a GFP reporter sequence at the N-terminus of the transcription start site was used as a control plasmid. The pcDNA3.1©/NT-GFP-mir-143 sensor plasmid contains (in addition to the elements above) three 22-nucleotide sites encoding the mir-143 miRNA binding site, downstream of the GFP coding sequence and upstream of the polyadenylation signal. The pCR3-pri-mir-143 plasmid (“pri-mir-143”) is a CMV promoter-driven constitutive expression plasmid which expresses the 110-nucleotide mir-143 pri-miRNA sequence (SEQ ID NO: 38), to act as a mir-143 pri-miRNA mimic. The pCR3-pri-mir control (“pri-mir-control”) is a CMV promotor-driven constitutive expression plasmid which is designed to express a similar 110-nucleotide pri-miRNA sequence ([…] CAGC; SEQ ID NO: 862) wherein the mature mir-143 sequence has been replaced with an unrelated sequence and the predicted complementary strand opposite it within the pri-miRNA structure is replaced with a nearly complementary sequence in order to preserve the stem loop as well as the bulge structure of the natural mir-143 pri-miRNA. Additionally, in order to test the effect of an oligomeric compound targeting a miRNA, the T-REx™-HeLa cells were also transfected with the uniform 2′-MOE phosphorothioate (PS) antisense oligomeric compound ISIS Number 327901 (SEQ ID NO: 319), targeted to mir-143 previously described.
# Twenty-four hours post-transfection, cells were trypsinized and GFP fluorescence was analyzed by flow cytometry.
# [2] = tested on: mir-143 miRNA; experiment: Northern blot of mature mir-143 in kidney of ob/ob mice; format: in vivo, mouse; settings: twice weekly at 25 mg/kg, saline = 100%
# Procedure: In addition, Northern blot analyses were performed to quantitate the expression of mature mir-143 in kidney samples of ob/ob mice treated with oligomeric compounds of the present invention. The mir-143 specific DNA oligonucleotide probe (SEQ ID NO: 319) described above was used to detect expression levels of the mir-143 miRNA in ob/ob mice treated (twice weekly at 25 mg/kg) with ISIS Numbers 327901, the uniform 2′-MOE oligomeric compound, or ISIS Number 340927, the 5-10-7 gapmer compound, both targeted to mir-143, versus saline treated animals or animals treated with ISIS 342672 (SEQ ID NO: 789), a uniform 2′-MOE scrambled negative control oligomeric compound. Expression levels were normalized against the U6 RNA and the expression levels of saline treated animals were set at 100%. […] In kidney samples from mice treated with the gapmer oligomeric compound targeting mir-143, ISIS Number 340927, a 23% reduction in in vivo expression levels of the mature mir-143 miRNA was observed.
# [3] = tested on: T47D cells; experiment: Caspase-3 activity assay (apoptosis) in T47D cells; settings: T47D cells, 48 hours
substance,measurement,setting,value
327901 (antisense eT*eG*eA*eG*e[5mC]*eT*eA*e[5mC]*eA*eG*eT*eG*e[5mC]*eT*eT*e[5mC]*eA*eT*e[5mC]*eT*e[5mC]*eA) [compound 327901],Mean fluorescence,[1]; oligo with GFP mir-143 sensor only,4.2 arbitrary units
same,Mean fluorescence,"[1]; oligo with pri-mir-143, no GFP plasmid",3.7 arbitrary units
same,Mean fluorescence,[1]; oligo with pri-mir-143 and GFP mir-143 sensor,4.1 arbitrary units
TGAGCTACAGTGCTTCATCTCA [ISIS 327901] (chemistry not given here) [uniform 2′-MOE PS; targets mir-143],recovery of GFP fluorescence,"[1]; with 20 nM mir-143 dsRNA, 4-, 20- or 100 nM",blocked the inhibitory effect of the mir-143 dsRNA oligomeric compound
same,decrease in in vivo expression levels of the mature mir-143 miRNA,[2],~40%
TGAGCTACAGTGCTTCATCTCA [ISIS 340927] (chemistry not given here) [5-10-7 2′-MOE gapmer PS; targets mature mir-143],decrease in in vivo expression levels of the mature mir-143 miRNA,[2],23%
328382 (e[5mC]*eA*eG*eA*e[5mC]*dT*d[5mC]*d[5mC]*d[5mC]*dA*dA*d[5mC]*dT*dG*dA*e[5mC]*e[5mC]*eA*eG*eA) [compound 328382],"Fold Increase over UTC (caspase-3 activity, apoptosis)","[3]; 200 nM oligomeric compound, experiment of Table 10",0.9 fold
328691 (e[5mC]*e[5mC]*e[5mC]*e[5mC]*eA*dT*d[5mC]*dT*dT*dA*dG*d[5mC]*dA*dT*d[5mC]*eT*eA*eA*eG*eG) [compound 328691],Fold Increase over UTC (caspase activity),"[3]; 200 nM, relative to untreated control",0.9
